Laboratory results: article PMC10986989, “Reciprocal regulation of enterococcal cephalosporin resistance by products of the autoregulated yvcJ-glmR-yvcL operon enhances fitness during cephalosporin exposure” (PLOS Genetics, 2024)

Molecular target: T1, GlmR (Enterococcus faecalis, UniProt A0ACD6TA08)
T1 construct: gene OG1RF_10501
Assay: thermal shift assay (SYPRO Orange)
Assay type: binding
Settings: 10 uM protein, 1 mM ligand

For `CC(=O)N[C@H]1[C@@H](OP(=O)(O)OP(=O)(O)OC[C@H]2O[C@@H](n3ccc(=O)[nH]c3=O)[C@H](O)[C@@H]2O)O[C@H](CO)[C@@H](O)[C@@H]1O` [UDP-GlcNAc], the thermal shift was “When incubated with UDP-GlcNAc, both YvcJ and GlmR exhibited clear thermal shifts”.
